Values of other authors as cited in the CATMoS acute toxicity set (Mansouri et al. 2021).
Several values for one entry are separate records, joined by “and”; a condition that tells them apart may be missing. Identical values can stand only once.

Experiment: rat acute oral toxicity
Conditions: in vivo
In the case of `O=S(=O)(O)C(F)(F)C(F)(F)C(F)(F)C(F)(F)C(F)(F)C(F)(F)C(F)(F)C(F)(F)F`, the LD50 is listed as 251 mg/kg and 154 mg/kg.
In the case of `Cc1c(C(=O)O)nnn1-c1ccccc1`, the LD50 is listed as 1500 mg/kg.
In the case of `CCO[Si](CCCC#N)(OCC)OCC`, the LD50 is listed as 4920 mg/kg.
For `O=C(O)c1ccc2c3c(ccc(C(=O)O)c13)C(=O)OC2=O`, the LD50 is listed as 3510 mg/kg.
For `O=C(O)Cc1ccc(-c2ccccc2)cc1`, the LD50 is listed as 164 mg/kg.
In the case of `CN(C)C(=S)SCN1CCOCC1`, the LD50 is listed as 1500 mg/kg.
In the case of `ClC(Cl)=C(c1ccc(Cl)cc1)c1ccccc1Cl`, the LD50 is given as 880 mg/kg.
For `COP(=S)(OC)Oc1cc(C)ccc1C(C)C`, the LD50 is listed as 750 mg/kg.
In the case of `O=C(C=Cc1ccccc1)NO`, the LD50 is given as 2140 mg/kg.
For `CCOP(=S)(OCC)SCC(=O)OC`, the LD50 is listed as 1000 mg/kg.
For `O=S1c2ccccc2N(CCCN2CCN(CCO)CC2)c2cc(Cl)ccc21` (configuration not stated), the LD50 is listed as 1000 mg/kg.
For `O=C1CCc2cc(C=CCN3CCN(c4cccc(Cl)c4)CC3)ccc2N1`, the LD50 is listed as 500 mg/kg.
For `Clc1ccc(COC(Cn2ccnc2)c2ccc(Cl)cc2Cl)cc1` (configuration not stated), the LD50 is listed as 668 mg/kg.
In the case of `CN(CC(=O)N1CCOCC1)Cc1c(Cl)cccc1NC(=O)c1ccccc1`, the LD50 is listed as 4200 mg/kg.
In the case of `COP(=S)(OC)SC(CC(=O)OC(C)C)C(=O)OC(C)C` (configuration not stated), the LD50 is listed as 4000 mg/kg.
In the case of `COc1ccc2c(c1)c(CC(=O)OCC(C(=O)O)c1ccccc1)c(C)n2C(=O)c1ccc(Cl)cc1` (configuration not stated), the LD50 is listed as 140 mg/kg.
For `CCC(C)C(C)(COC(N)=O)COC(N)=O` (configuration not stated), the LD50 is given as 1160 mg/kg.
For `CCCCCCCOCCO`, the LD50 is given as 2280 mg/kg.
For `C[Si](Cl)(Cl)Cl`, the LD50 is listed as 800 mg/kg.
For `CC=CC=CC=CC(C)=O`, the LD50 is listed as 4300 mg/kg.
In the case of `CN(C)S(=O)(=O)c1cc(Cl)c(N)cc1Cl`, the LD50 is given as 4090 mg/kg.
In the case of `S=C1NCCS1`, the LD50 is listed as 300 mg/kg.
In the case of `O=C1CC2(CCCC2)CC(=O)N1CCCCN1CCN(c2ncccn2)CC1`, the LD50 is given as 196 mg/kg.
For `CC(=O)OCC(=O)NCCCOc1cccc(CN2CCCCC2)c1`, the LD50 is given as 755 mg/kg.
In the case of `CCOP(=S)(OCC)Oc1cc(C)nc(N(C)C)n1`, the LD50 is listed as 125 mg/kg.
In the case of `Cc1oncc1C(=O)Nc1ccc(C(F)(F)F)cc1`, the LD50 is listed as 235 mg/kg.
For `CNC(=O)Oc1cccc2sccc12`, the LD50 is listed as 70 mg/kg.
In the case of `O=C(Cc1cccs1)N[C@@H]1C(=O)N2C(C(=O)[O-])=C(C[n+]3ccccc3)CS[C@H]12`, the LD50 is listed as 2500 mg/kg.
For `O=C(O)C1=CCCN(CCOC(c2ccc(C(F)(F)F)cc2)c2ccc(C(F)(F)F)cc2)C1`, the LD50 is listed as 894 mg/kg.
For `O=C(NO)Nc1ccc(Cl)c(Cl)c1`, the LD50 is given as 1850 mg/kg.
In the case of `C=CC[N+](C)(C)CC=C`, the LD50 is given as 3000 mg/kg.
For `Cc1ccccc1N(CCO)CCO`, the LD50 is given as 2200 mg/kg.
For `Nc1c(Cl)cc(Cl)cc1Cl`, the LD50 is listed as 2400 mg/kg.
In the case of `CCOC(=O)c1ccc(OC)cc1`, the LD50 is listed as 2040 mg/kg.
For `O=C(O)C(Br)Br`, the LD50 is listed as 1740 mg/kg.
For `CCOC(C(=O)N(C)CCN(C)C)(c1ccccc1)c1ccccc1`, the LD50 is given as 565 mg/kg.
For `CCC(C)(C)c1ccc(Cl)c(OC(=O)NC)c1`, the LD50 is listed as 75 mg/kg.
In the case of `O=C1CCc2cccc3c2N1CC3`, the LD50 is listed as 321 mg/kg.
For `CCOP(=S)(OCC)Oc1cc(C)c(SC)c(C)c1`, the LD50 is given as 375 mg/kg.
For `O=C(O)c1cc(I)cc(I)c1I`, the LD50 is listed as 2200 mg/kg and 813 mg/kg.
In the case of `COP(=S)(OC)SCSc1cc(Cl)ccc1Cl`, the LD50 is given as 220 mg/kg.
For `CC(C)(C)c1cc([N+](=O)[O-])cc([N+](=O)[O-])c1O`, the LD50 is given as 26 mg/kg.
In the case of `Cc1cccc(C)c1N`, the LD50 is listed as 2040 mg/kg.
In the case of `CCNc1nc(NC(C)CC)nc(OC)n1` (configuration not stated), the LD50 is given as 1000 mg/kg.
In the case of `C=C1CC(C)C2C3Cc4ccc(O)cc4C2(CCN3CC2CCC2)C1` (configuration not stated), the LD50 is given as 750 mg/kg.
In the case of `CC1(C)C(=O)N(Cl)C(=O)N1Cl`, the LD50 is listed as 542 mg/kg.
In the case of `CCCCC(CC)CNCC(C)(N)CNCC(CC)CCCC` (configuration not stated), the LD50 is given as 800 mg/kg.
In the case of `Nc1ccc(C(=O)O)cc1`, the LD50 is listed as 8000 mg/kg.
In the case of `N[C@@H](Cc1c[nH]c2ccc(O)cc12)C(=O)O`, the LD50 is listed as 243 mg/kg.
For `O=C(Cl)C(c1ccccc1)c1ccccc1`, the LD50 is listed as 6330 mg/kg.
In the case of `CN(C)Cc1ccccc1`, the LD50 is listed as 265 mg/kg.
For `N#CC(CCN1CCC(C(=O)O)(c2ccccc2)CC1)(c1ccccc1)c1ccccc1`, the LD50 is listed as 149 mg/kg.
In the case of `COc1c(C)ccc(C)c1N(COC(C)C)C(=O)CCl`, the LD50 is given as 1730 mg/kg.
In the case of `CN(C)CCC1Oc2ccccc2Nc2ccccc21` (configuration not stated), the LD50 is listed as 1400 mg/kg.
For `COc1ccc(N)c(OC)c1`, the LD50 is listed as 464 mg/kg.
In the case of `CC(C)=C1CC[C@@H](C)CC1=O`, the LD50 is listed as 470 mg/kg.
In the case of `CC(C)COC(=O)c1ccccc1`, the LD50 is listed as 5600 mg/kg.
For `O=C(OC1CCCCC1)C(Oc1ccc(Cl)cc1)Oc1ccc(Cl)cc1`, the LD50 is listed as 900 mg/kg.
For `O=C1CCCCCC=CCCCCCCCCO1`, the LD50 is given as 339 mg/kg.
In the case of `COP(=O)(SC)c1ccccc1` (configuration not stated), the LD50 is listed as 55.3 mg/kg.
In the case of `COC(=O)C=C1CCCC1`, the LD50 is given as 3360 mg/kg.
In the case of `CC1(C)[C@H](C=C(Cl)Cl)[C@H]1C(=O)OCc1c(F)c(F)c(F)c(F)c1F`, the LD50 is listed as 85 mg/kg.
For `C=CCC(CC)(CC)C(N)=O`, the LD50 is given as 400 mg/kg.
For `O=S(=O)(O)c1ccc(N=Nc2ccc(N=Nc3c(O)ccc4ccccc34)cc2)cc1`, the LD50 is given as 7740 mg/kg.
In the case of `CC(=O)OCCN(CCC#N)c1ccccc1`, the LD50 is listed as 2070 mg/kg.
For `CC1COCC(C)N1C(=O)C[n+]1ccc(-c2cc[n+](CC(=O)N3C(C)COCC3C)cc2)cc1` (configuration not stated), the LD50 is given as 345 mg/kg.
For `Nc1ccc(Oc2ccc(N)cc2)cc1`, the LD50 is given as 725 mg/kg.
In the case of `C=COP(=O)(OCC)OC(CCl)c1cc(Cl)c(Cl)cc1Cl` (configuration not stated), the LD50 is listed as 1100 mg/kg.
For `FC(F)(F)c1nc2c(Br)cc(Cl)cc2[nH]1`, the LD50 is given as 7.18 mg/kg.
In the case of `CCCCCCS`, the LD50 is given as 1250 mg/kg.
For `CC(C)=CCCC(C)CC=O` (configuration not stated), the LD50 is given as 2420 mg/kg and 7200 mg/kg.
In the case of `CCN(CC)S(=O)(=O)c1c(Cl)c(Cl)c(Cl)c2[nH]c(C(F)(F)F)nc12`, the LD50 is listed as 11.2 mg/kg.
